The term IC50 denotes the concentration at which inhibition is half-maximal.

We go through 11 molecules from ChEMBL document CHEMBL1770094, “Design, synthesis and antiproliferative activity of novel aminosubstituted benzothiopyranoisoindoles” (Bioorg Med Chem Lett, 2011).

Assay [1] is described as follows: Cytotoxicity against human MES-SA cells assessed as inhibition of cell proliferation after 72 hrs by MTT assay. It counts as functional, cell-based. A general note: Tetrazolium assays rely on reduction of a dye to a coloured formazan, in cell work by metabolically active cells.
The subject of assay [2] is MES-SA. Put plainly: Resistant factor, ratio of IC50 for doxorubicin-resistant human MES-SA/Dx5 cells to IC50 for doxorubicin-sensitive human MES-SA cells. The format is functional.
Assay [3] deals with HCT-116. Put plainly: Cytotoxicity against human HCT116 cells assessed as inhibition of cell proliferation after 72 hrs by MTT assay. It counts as functional, cell-based. To be noted: HCT-116, 72 h.
Assay [4] in a line: Cytotoxicity against human MES-SA/Dx5 cells assessed as inhibition of cell proliferation after 72 hrs by MTT assay. The format is functional, cell-based. The settings on record: MES-SA/Dx5, 72 h.

The structures appear in SMILES notation.

As to `CN(C)CCn1cc2c([N+](=O)[O-])ccc3c2c1-c1ccccc1S3(=O)=O`, the figures for the IC50 in assay [1], in assay [3] and in assay [4] were 3520 nM, 5420 nM and 5180 nM, respectively. The “Ratio IC50” value in assay [2] is on record as 1.47.

Regarding `O=[N+]([O-])c1ccc2c3c(n(CCN4CCCCC4)cc13)-c1ccccc1S2(=O)=O`, the half-maximal inhibitory concentration (IC50) in assay [1] was determined as 3980 nM; in assay [3], 5470 nM; in assay [4], 2550 nM. In addition, the “Ratio IC50” value in assay [2] came out at 0.64.

In the case of `COc1cccc2c1C(=O)c1c(O)c3c(c(O)c1C2=O)C[C@@](O)(C(=O)CO)C[C@@H]3O[C@H]1C[C@H](N)[C@H](O)[C@H](C)O1` [DOXORUBICIN], the IC50 turned out to be 30 nM in assay [1], 160 nM in assay [3] and 2400 nM in assay [4]. The “Ratio IC50” value in assay [2] was found to be 79.93.

Take `CCN(CC)CCn1cc2c([N+](=O)[O-])ccc3c2c1-c1ccccc1S3(=O)=O`: the IC50 in assay [1] is 3980 nM; in assay [3], 6020 nM; in assay [4], 2610 nM. For the same molecule, in assay [2], the “Ratio IC50” value is 0.66.

With `O=[N+]([O-])c1ccc2c3c(n(CCN4CCCC4)cc13)-c1ccccc1S2`, the IC50 in assay [1] was 1720 nM; in assay [3], 1150 nM; in assay [4], 2150 nM. For the same molecule, the “Ratio IC50” value in assay [2] came out at 1.25.

For the molecule `O=[N+]([O-])c1ccc2c3c(n(CCN4CCCCC4)cc13)-c1ccccc1S2`, the half-inhibitory concentration (IC50) in assay [1] amounted to 16700 nM; in assay [3], 8090 nM; in assay [4], 9160 nM. Further, in assay [2], the “Ratio IC50” value came out at 0.55.

As for `CN(C)CCn1cc2c([N+](=O)[O-])ccc3c2c1-c1ccccc1S3`, the IC50 in assay [1] was determined as 4440 nM; in assay [3] it was 2100 nM; in assay [4] it was 1700 nM. For the same molecule, the “Ratio IC50” value in assay [2] is reported as 0.38.

Turning to `O=C1c2c(O)ccc(O)c2C(=O)c2c(NCCNCCO)ccc(NCCNCCO)c21` [MITOXANTRONE], the IC50 in assay [1] turned out to be 12 nM; in assay [3] it was 22 nM; in assay [4], 80 nM. The “Ratio IC50” value in assay [2] came to 6.67.

On to `CCN(CC)CCn1cc2c([N+](=O)[O-])ccc3c2c1-c1ccccc1S3`, for which the values for the IC50 in assay [1], in assay [3] and in assay [4] were 1930 nM, 2140 nM and 5080 nM, respectively. Further, the “Ratio IC50” value in assay [2] was determined as 2.63.

As for `O=[N+]([O-])c1ccc2c3c(n(CCN4CCCC4)cc13)-c1ccccc1S2(=O)=O`, the IC50 in assay [1] is 2300 nM; in assay [3], 7040 nM; in assay [4], 1450 nM. Further, the “Ratio IC50” value in assay [2] is listed as 0.63.

Regarding `CCN(CC)CCNc1ccc2c3c(n(CCN(CC)CC)cc13)-c1ccccc1S2(=O)=O`, the results for the IC50 in assay [1], in assay [3] and in assay [4] were 68200 nM, 60400 nM and more than 100000 nM, respectively.
